Measured values as given in patent US20250188092A1, “RIFAMYCIN ANALOGS” (THE REGENTS OF THE UNIVERSITY OF MICHIGAN, priority 2021, published 2025).

How the values were obtained:
VERO cells (ATCC CRL-81) = assay: Vero cell toxicity; assay type: cell-based; details: Chlorocebus sabaeus, Vero; 72 hours exposure
Protocol: Cytotoxicity for a mammalian cell line was determined by exposing VERO cells (ATCC CRL-81) to serial dilutions of test compounds for 72 hours, followed by addition of resazurin and measurement of fluorescence after 4 hours incubation (Choules, et al., Antimnicrob. Agents Chemother. 2019, 63, e02204-02218).

[1] = molecular target: T1, E. coli S531L (RIF^R) RNAP (Escherichia coli, UniProt P0A8V2, S531L); assay: biochemical
T1 construct: made in house

E. coli WT RNAP = molecular target: T2, E. coli WT RNAP (Escherichia coli, UniProt P0A8V2); assay: biochemical
T2 construct: made in house

[2] = molecular target: T3, E. coli D516V (RIF^R) RNAP (Escherichia coli, UniProt P0A8V2, D516V); assay: biochemical
T3 construct: made in house

DPX2 cells = details: for DPX2 Viability @ 6.25 μM: 24 h; for DPX2 Viability @ 25 μM: human
MTB H37Rv ATCC 27294 = assay: MIC, microplate Alamar Blue assay (MABA); assay type: cell-based, Mycobacterium tuberculosis; details: for MIC / MIC90: Mycobacterium tuberculosis, MTB H37Rv ATCC 27294, microplate Alamar Blue assay, lowest concentration giving ≥90% reduction in fluorescence; for MIC: read-out: MIC90 MABA
M. tuberculosis H37Rv = assay: Minimum bactericidal concentration (MBC, CFU Assay); assay type: cell-based, Mycobacterium tuberculosis; details: for MBC99 Day 7 (CFU Assay) MBC99 Rel to RMP: CFU Assay MBC99 relative to rifampin (RMP = 1); for MBC: Mycobacterium tuberculosis, 168 h, Day 7, M. tuberculosis H37Rv, ≥99% reduction in colony forming units, read-out: MBC99 Day 7 (CFU Assay) MBC99

| Structure (SMILES) | IC50 (VERO cells (ATCC CRL-81)) | IC50 [1] | IC50 (E. coli WT RNAP) | IC50 [2] | DPX2 Viability @ 6.25 μM (DPX2 cells) | DPX2 Viability @ 25 μM (DPX2 cells) | MIC90 MABA Rel to RMP (MTB H37Rv ATCC 27294) | MIC (MTB H37Rv ATCC 27294) | MBC99 Day 7 (CFU Assay) MBC99 Rel to RMP (M. tuberculosis H37Rv) | MBC (M. tuberculosis H37Rv) | MBC better than that of rifampin (M. tuberculosis H37Rv) | MIC90 (MTB H37Rv ATCC 27294) |
| --- | --- | --- | --- | --- | --- | --- | --- | --- | --- | --- | --- | --- |
| CO[C@H]1/C=C/O[C@@]2(C)Oc3c(C)c(O)c4c(=O)c(c5oc6cccc(OCCCCN7CCNCC7)c6nc-5c4c3C2=O)NC(=O)/C(C)=C\C=C\[C@H](C)[C@H](O)[C@@H](C)[C@@H](O)[C@@H](C)[C@H](OC(C)=O)[C@@H]1C [Compound 5d, (7S,9E,11S,12R,13S,14R,15R,16R,17S,18S,19E,21Z)-2,15,17-Trihydroxy-11-methoxy-3,7,12,14,16,18,22-heptamethyl-6,23,37-trioxo-32-[4-(piperazin-1-yl)butoxy]-8,27,38-trioxa-24,34-diazahexacyclo[23.11.1.1^4,7.0^5,36.0^26,35.0^28,33]octatriaconta-1(36)2,4,9,19,21,25,28,30,32,34-undecaen-13-yl acetate] | > 8 µM | 440 µM | 6 nM | 29 µM | 102% | 59% | – | – | – | – | – | – |
| CO[C@H]1/C=C/O[C@@]2(C)Oc3c(C)c(O)c4c(=O)c(c5oc6cccc(OCCCCN7CCN(C(=O)CN8CCOCC8)CC7)c6nc-5c4c3C2=O)NC(=O)/C(C)=C\C=C\[C@H](C)[C@H](O)[C@@H](C)[C@@H](O)[C@@H](C)[C@H](OC(C)=O)[C@@H]1C [Compound 5e, (7S,9E,11S,12R,13S,14R,15R,16R,17S,18S,19E,21Z)-2,15,17-Trihydroxy-11-methoxy-3,7,12,14,16,18,22-heptamethyl-32-(4-{4-[2-(morpholin-4-yl)acetyl]piperazin-1-yl}butoxy)-6,23,37-trioxo-8,27,38-trioxa-24,34-diazahexacyclo[23.11.1.1^4,7.0^5,36.0^26,35.0^28,33]octatriaconta-1(36)2,4,9,19,21,25,28(33)29,31,34-undecaen-13-yl acetate] | > 8 µM | > 1000 µM | 7 nM | 23 µM | 106% | 83% | 1.4 | 0.082 µM | – | – | – | – |
| CO[C@H]1/C=C/O[C@@]2(C)Oc3c(C)c(O)c4c(=O)c(c5oc6cccc(OCc7cccc(CN8CCN(C(=O)Cn9ccnc9)CC8)c7)c6nc-5c4c3C2=O)NC(=O)/C(C)=C\C=C\[C@H](C)[C@H](O)[C@@H](C)[C@@H](O)[C@@H](C)[C@H](OC(C)=O)[C@@H]1C [Compound 11e, (7S,9E,11S,12R,13S,14R,15R,16R,17S,18S,19E,21Z)-2,15,17-Trihydroxy-32-{[3-({4-[2-(1H-imidazol-1-yl)acetyl]piperazin-1-yl}methyl)phenyl]methoxy}-11-methoxy-3,7,12,14,16,18,22-heptamethyl-6,23,37-trioxo-8,27,38-trioxa-24,34-diazahexacyclo[23.11.1.1^4,7.0^5,36.0^26,35.0^28,33]octatriaconta-1(36)2,4,9,19,21,25,28,30,32,34-undecaen-13-yl acetate] | > 8 µM | – | – | – | 105% | 96% | 0.93 | 0.048 µM | 0.15 | 0.02 µM | – | – |
| CO[C@H]1/C=C/O[C@@]2(C)Oc3c(C)c(O)c4c(=O)c(c5oc6cc(N7CCN(CC(C)C)CC7)cc(OCc7ccc(CN8CCNCC8)cc7)c6nc-5c4c3C2=O)NC(=O)/C(C)=C\C=C\[C@H](C)[C@H](O)[C@@H](C)[C@@H](O)[C@@H](C)[C@H](OC(C)=O)[C@@H]1C [Compound 17b, (7S,9E,11S,12R,13S,14R,15R,16R,17S,18S,19E,21Z)-2,15,17-Trihydroxy-11-methoxy-3,7,12,14,16,18,22-heptamethyl-30-[4-(2-methylpropyl)piperazin-1-yl]-6,23,37-trioxo-32-({4-[(piperazin-1-yl)methyl]phenyl}methoxy)-8,27,38-trioxa-24,34-diazahexacyclo[23.11.1.1^4,7.0^5,36.0^26,35.0^28,33]octatriaconta-1(36)2,4,9,19,21,25,28,30,32,34-undecaen-13-yl acetate] | 7.9 µM | – | – | – | 109% | 45% | 0.24 | < 0.016 µM | 0.15 | 0.02 µM | ~5 fold | – |
| CO[C@H]1/C=C/O[C@@]2(C)Oc3c(C)c(O)c4c(=O)c(c5oc6cc(N7CCN(C(=O)c8cccc(-n9ccnc9)c8)CC7)cc(C)c6nc-5c4c3C2=O)NC(=O)/C(C)=C\C=C\[C@H](C)[C@H](O)[C@@H](C)[C@@H](O)[C@@H](C)[C@H](OC(C)=O)[C@@H]1C [Compound 29a, (7S,9E,11S,12R,13S,14R,15R,16R,17S,18S,19E,21Z)-2,15,17-Trihydroxy-30-{4-[3-(1H-imidazol-1-yl)benzoyl]piperazin-1-yl}-11-methoxy-3,7,12,14,16,18,22,32-octamethyl-6,23,37-trioxo-8,27,38-trioxa-24,34-diazahexacyclo[23.11.1.1^4,7.0^5,36.0^26,35.0^28,33]octatriaconta-1(36)2,4,9,19,21,25,28,30,32,34-undecaen-13-yl acetate] | > 10 µM | – | – | – | – | 149% | 1.33 | – | 0.15 | 0.02 µM | – | 0.036 µM |
| CO[C@H]1/C=C/O[C@@]2(C)Oc3c(C)c(O)c4c(=O)c(c5oc6cc(N7CCN(CCCO[C@@H]8COc9nc([N+](=O)[O-])cn9C8)CC7)cc(C)c6nc-5c4c3C2=O)NC(=O)/C(C)=C\C=C\[C@H](C)[C@H](O)[C@@H](C)[C@@H](O)[C@@H](C)[C@H](OC(C)=O)[C@@H]1C [Compound 29d, (7S,9E,11S,12R,13S,14R,15R,16R,17S,18S,19E,21Z)-2,15,17-Trihydroxy-11-methoxy-3,7,12,14,16,18,22,32-octamethyl-30-[4-(3-{[(6S)-2-nitro-5H,6H,7H-imidazo[2,1-b][1,3]oxazin-6-yl]oxy}propyl)piperazin-1-yl]-6,23,37-trioxo-8,27,38-trioxa-24,34-diazahexacyclo[23.11.1.1^4,7.0^5,36.0^26,35.0^28,33]octatriaconta-1(36)2,4,9,19,21,25,28,30,32,34-undecaen-13-yl acetate] | > 10 µM | – | – | – | 114% | 101% | 1.37 | – | 0.62 | 0.08 µM | – | 0.037 µM |
| CO[C@H]1/C=C/O[C@@]2(C)Oc3c(C)c(O)c4c(=O)c(c5oc6cc(C)cc(N7CCN(C(=O)c8cccc(-n9ccnc9)c8)CC7)c6nc-5c4c3C2=O)NC(=O)/C(C)=C\C=C\[C@H](C)[C@H](O)[C@@H](C)[C@@H](O)[C@@H](C)[C@H](OC(C)=O)[C@@H]1C [Compound 30f, (7S,9E,11S,12R,13S,14R,15R,16R,17S,18S,19E,21Z)-2,15,17-Trihydroxy-32-{4-[3-(1H-imidazol-1-yl)benzoyl]piperazin-1-yl}-11-methoxy-3,7,12,14,16,18,22,30-octamethyl-6,23,37-trioxo-8,27,38-trioxa-24,34-diazahexacyclo[23.11.1.1^4,7.0^5,36.0^26,35.0^28,33]octatriaconta-1(36)2,4,9,19,21,25,28,30,32,34-undecaen-13-yl acetate] | > 10 µM | – | – | – | 98% | 64% | 1.63 | – | – | – | – | 0.044 µM |
| CO[C@H]1/C=C/O[C@@]2(C)Oc3c(C)c(O)c4c(=O)c(c5oc6cc(C)cc(N7CCN(C(=O)c8cccc(-c9ccccn9)c8)CC7)c6nc-5c4c3C2=O)NC(=O)/C(C)=C\C=C\[C@H](C)[C@H](O)[C@@H](C)[C@@H](O)[C@@H](C)[C@H](OC(C)=O)[C@@H]1C [Compound 30g, (7S,9E,11S,12R,13S,14R,15R,16R,17S,18S,19E,21Z)-2,15,17-Trihydroxy-11-methoxy-3,7,12,14,16,18,22,30-octamethyl-6,23,37-trioxo-32-{4-[3-(pyridin-2-yl)benzoyl]piperazin-1-yl}-8,27,38-trioxa-24,34-diazahexacyclo[23.11.1.1^4,7.0^5,36.0^26,35.0^28,33]octatriaconta-1(36)2,4,9,19,21,25,28,30,32,34-undecaen-13-yl acetate] | > 10 µM | – | – | – | 99% | 61% | 0.96 | – | <0.08 | < 0.02 µM | – | 0.026 µM |
| CO[C@H]1/C=C/O[C@@]2(C)Oc3c(C)c(O)c4c(=O)c(c5oc6cc(C)cc(N7CCN(C(=O)c8ccc9occc9c8)CC7)c6nc-5c4c3C2=O)NC(=O)/C(C)=C\C=C\[C@H](C)[C@H](O)[C@@H](C)[C@@H](O)[C@@H](C)[C@H](OC(C)=O)[C@@H]1C [Compound 30h, (7S,9E,11S,12R,13S,14R,15R,16R,17S,18S,19E,21Z)-32-[4-(1-Benzofuran-5-carbonyl)piperazin-1-yl]-2,15,17-trihydroxy-11-methoxy-3,7,12,14,16,18,22,30-octamethyl-6,23,37-trioxo-8,27,38-trioxa-24,34-diazahexacyclo[23.11.1.1^4,7.0^5,36.0^26,35.0^28,33]octatriaconta-1(36)2,4,9,19,21,25,28,30,32,34-undecaen-13-yl acetate] | > 10 µM | – | – | – | 100% | 57% | 0.70 | – | <0.08 | < 0.02 µM | – | 0.019 µM |
